Earlier results as cited in patent EP0622459A1, “Fused proteins for preparing vasoactive intestinal polypeptide analogs, method of preparing same and recombinant plasmids and transformant microorganisms” (SANWA KAGAKU KENKYUSHO CO., LTD., priority 1993, dated 1994).
Ends that are not written are not given here.

Conditions: prior-art analogs, result in words

Leu¹⁷-VIP-OH: genetically engineered VIP analog of the prior art (JP-A-1-296996 and JP-A-3-280893) (HSDAVFTDNYTRLRKQLAVKKYLNSILN-OH; UniProt P01282 125-152, looked up, variant M17L)
biological activity compared with VIP: only comparable to naturally occurring VIP
